Experiment: gradient 5% acetonitrile 3 min, to 50% in 2 min, to 85% in 15 min, held 3 min, 100 µL/min
Settings: column: Zorbax Extend-C18 2.1 x 50 mm; eluents: water / acetonitrile, 0.1% formic acid
Outline: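 Retention times of pure standards were taken from adduct peaks that were selected by computer and manually inspected. Over 3 months, mixtures of ~100 molecules were run by HPLC–quadrupole time-of-flight mass spectrometry in positive and negative ionization mode. The Zorbax Extend-C18 column (2.1 × 50 mm, 1.8 μm) ran at 100 μL/min in water and acetonitrile, each containing 0.1% formic acid, with 40 μL dead volume and 900 μL dwell volume.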
With `O=S(=O)(CCc1noc(-c2cccc(F)c2)n1)c1ccccc1` the RP-LC retention time was 904 s. `COc1ccc(CNC(=O)C2CCCN2S(=O)(=O)c2cc3c(cc2C)NC(=O)CO3)cc1` (centres undefined) gave an RP-LC retention time of 728 s. With `COCCC1(NS(C)(=O)=O)CCN(C(=O)NCC(C)C)CC1` the RP-LC retention time was 646 s. `CC(=O)N1CCC(C(=O)Nc2ccc(OCc3nnc(-c4ccccc4)o3)cc2)CC1` showed an RP-LC retention time of 712 s. Work on `Cc1nccn1C1CN(C(=O)c2ccc3cc[nH]c3c2)C1` yielded an RP-LC retention time of 582 s. For `CNC(=O)N1CCC(C2CCN(C(=O)CSC)C2)CC1` (centres undefined), the RP-LC retention time was 608 s. `Cc1ccc(N2CCN(S(=O)(=O)N(C)C)CC2)cc1Cl` gave an RP-LC retention time of 990 s. Work on `CCc1nc(-c2csc(S(=O)(=O)N3CCCC(C(=O)NCc4ccccc4Cl)C3)c2)no1` (centres undefined) yielded an RP-LC retention time of 1050 s. Molecule `CC(/C=C/C(=O)NO)=C\C(C)C(=O)c1ccc(N(C)C)cc1` (centres undefined) has an RP-LC retention time of 723 s. `Cn1cnc(S(=O)(=O)N2CCC(c3noc(COCc4ccccc4)n3)C2)c1` (centres undefined) showed an RP-LC retention time of 761 s. Molecule `CN(C)c1nn(CC(=O)Nc2ccc(F)c(Cl)c2)c(=O)c2ccccc12` has an RP-LC retention time of 928 s. `COCCCN(C(=O)c1ccc(F)cc1)C(C)C(=O)c1c(C)[nH]c(C(=O)OC)c1C` (centres undefined) gave an RP-LC retention time of 754 s. Work on `Cc1cc(C)c(C)c(S(=O)(=O)NCC(=O)N2CCN(c3ccccc3)CC2)c1C` yielded an RP-LC retention time of 966 s. Molecule `Cc1cccc(CNC(=O)c2cn3cc(C)ccc3n2)c1` has an RP-LC retention time of 708 s. With `CCNC(=O)c1nc(C(=O)NCc2ccccc2F)cs1` the RP-LC retention time was 765 s. Work on `CCOc1ccccc1NC(=O)N1CC(N(CC)C2CCOCC2)C1` yielded an RP-LC retention time of 561 s. `Cc1ccc(-n2ccc(=O)c(-c3nc(-c4ccc(Cl)c(F)c4)no3)n2)cc1` showed an RP-LC retention time of 1050 s. Molecule `CCc1cc(=O)n(CC(=O)Nc2cccc(C#N)c2)c(-c2ccccc2)n1` has an RP-LC retention time of 1080 s. `CCSc1ccccc1C(=O)Nc1cccc2ccc(-n3ccnc3)nc12` showed an RP-LC retention time of 668 s. For `Cc1cc(-c2nnc(C3CCC3)o2)c(C)n1CC(=O)Nc1ccc(F)c(F)c1`, the RP-LC retention time was 915 s. Molecule `O=c1ccc(-c2nc(-c3ccncc3)no2)nn1Cc1ccc(Cl)cc1` has an RP-LC retention time of 909 s. In the case of `CC(C)c1noc(C2CCCN(C(=O)NC3CCCCC3)CCC(=O)NCC2)n1` (centres undefined), the RP-LC retention time is reported as 752 s. With `Cc1cc(C)cc(C(=O)N2CCC(n3c(-c4ccco4)nc4cccnc43)C2)c1` (centres undefined) the RP-LC retention time was 825 s. Work on `Cn1ncc2c3ccccc3n(CC(=O)N3CCN(Cc4ccc5c(c4)OCO5)CC3)c2c1=O` yielded an RP-LC retention time of 622 s. `Cc1cccc(-n2c(=O)c3sccc3n(Cc3nc(-c4ccccc4C)no3)c2=O)c1` showed an RP-LC retention time of 1070 s. Work on `O=C(Nc1cccc2c1CCCC2)C1CCN(S(=O)(=O)c2ccc3[nH]c(=O)ccc3c2)CC1` yielded an RP-LC retention time of 808 s. With `CN(CCCNC(=O)c1ccc2c(c1)NC(=O)C1CCCCN21)Cc1ccccc1` (centres undefined) the RP-LC retention time was 617 s. `CCCCS(=O)(=O)c1cc2c(cc1NC(=O)c1cccc(C)c1)n(C)c(=O)n2C` gave an RP-LC retention time of 981 s. `CC1CCN(S(=O)(=O)c2ccc(-c3nnc(C(=O)N4CCCCC4)o3)cc2)CC1` gave an RP-LC retention time of 1040 s. In the case of `O=C(NCC1CCN(C(=O)Oc2ccccc2)CC1)C(=O)Nc1ccon1`, the RP-LC retention time is reported as 741 s. In the case of `COc1ccc(NC(=O)N2CCN(CC(=O)c3c(C)n(C)c4ccccc34)CC2)cc1`, the RP-LC retention time is reported as 656 s. For `Cn1c(=O)c2c(ncn2CC(=O)Nc2cccc(N3CCCS3(=O)=O)c2)n(C)c1=O`, the RP-LC retention time was 595 s. In the case of `O=C(CCCSc1ccc(NC(=O)c2cccs2)nn1)NCc1ccco1`, the RP-LC retention time is reported as 714 s. For `CN(C)C(=O)c1n[nH]c2c1CN(C(=O)c1ccc(C(F)(F)F)cc1)CC2`, the RP-LC retention time was 674 s. With `O=C(Cc1nnc(-c2ccc3ncccc3c2)o1)Nc1ccc(Cl)cc1` the RP-LC retention time was 760 s. `Cc1nn(CC(=O)N2CCN(c3ccccc3)CC2)c(=O)c2nc(-c3ccccc3)sc12` gave an RP-LC retention time of 924 s. With `CCOC(=O)c1cc(C2CC2)nc2c1c(=O)n(Cc1ccc(F)cc1Cl)c(=O)n2C` the RP-LC retention time was 855 s. Work on `CC(=O)Nc1ccc(CCc2nc3ccc(C(=O)NC(C)C)cc3[nH]2)cc1` yielded an RP-LC retention time of 574 s. `Cc1ccc(N2C(=O)C3N=NN(c4ccccc4)C3C2=O)cc1C` (centres undefined) gave an RP-LC retention time of 1010 s. With `Cc1ccc(CS(=O)(=O)N2CCC(CN3CCCC(C)C3)CC2)cc1C` (centres undefined) the RP-LC retention time was 717 s. Molecule `O=C(NCc1cc(F)ccc1F)C1CCN(c2cnc(N3CCCC3)nc2)CC1` has an RP-LC retention time of 667 s. In the case of `O=C(NCc1csc(C2CCCN(C(=O)c3ccc(F)cc3F)C2)n1)C1CC1` (centres undefined), the RP-LC retention time is reported as 717 s. `c1ccc(-c2noc(-c3cc(N4CCOCC4)nc4ccccc34)n2)cc1` gave an RP-LC retention time of 1240 s. Molecule `CS(=O)(=O)c1ccc2nc(NC(=O)c3ccc([N+](=O)[O-])o3)sc2c1` has an RP-LC retention time of 679 s. Molecule `COc1ccc(CN2CCc3nc(N4CCCC4)ncc3C2)c(OC)c1` has an RP-LC retention time of 619 s. Work on `COc1ccc2c(c1)-c1nc(NC(=O)c3cccc(Br)c3)sc1CC2` yielded an RP-LC retention time of 1230 s. Work on `CN1c2ccc(F)cc2C(=O)NC12CCN(C(=O)Cc1ccccc1Cl)CC2` yielded an RP-LC retention time of 774 s. For `CN(C)c1nc2cc(C(=O)N3CCOCC3)sc2n1-c1ccccc1`, the RP-LC retention time was 614 s. For `O=C(NCc1ccccc1)C1CC(=O)N(c2ccc3c(c2)CCN3C(=O)C2CC2)C1` (centres undefined), the RP-LC retention time was 727 s. Molecule `CCC1CN(S(=O)(=O)c2cc(-c3cc(C)no3)cs2)c2cc(Cl)ccc2O1` (centres undefined) has an RP-LC retention time of 1240 s. With `CCOC(=O)c1cc(-c2ccccc2)n(CCC(=O)N2CCN(c3ccccn3)CC2)c1C` the RP-LC retention time was 715 s. Work on `CCCNc1cc(N2CCC(CCC(=O)NCCc3ccccn3)CC2)ncn1` yielded an RP-LC retention time of 557 s. Molecule `COc1ccc(CN2CCC([C@@H]3CNC[C@H]3CO)CC2)c(Cl)c1OC` has an RP-LC retention time of 551 s. For `Cc1cc(NC(=O)C(=O)NCC(c2cn(C)c3ccccc23)N(C)C)no1` (centres undefined), the RP-LC retention time was 572 s. `Cc1cc2n(n1)CCCN2Cc1ccc(C(=O)NCCCN2CCCC2=O)cc1` showed an RP-LC retention time of 587 s. In the case of `COc1ccccc1-c1nnc(NC(=O)c2ccc3c(c2)CCCC3)o1`, the RP-LC retention time is reported as 822 s. `COc1cccc(CNC(=O)C2(C)CCCN(C(=O)Nc3cc(C)ccc3C)C2)c1` (centres undefined) showed an RP-LC retention time of 939 s. `CC(C)Cn1cc(S(=O)(=O)NC2CCCCCC2)c2cccnc21` gave an RP-LC retention time of 1060 s. Work on `CC(NC(=O)C1CCCN(C(=O)c2cc3sccc3n2C)C1)c1ccccc1` (centres undefined) yielded an RP-LC retention time of 628 s. Work on `O=C(Nc1ccc2c(c1)OCCO2)C1CCCN(S(=O)(=O)c2c[nH]c(C(=O)N3CCCC3)c2)C1` (centres undefined) yielded an RP-LC retention time of 756 s. `CCc1onc(C)c1C1CCCN1C(=O)Cc1ccc(OC)c(OC)c1` (centres undefined) showed an RP-LC retention time of 718 s. `CCn1c(C)c(-c2nc(C3CC3)no2)c(S(=O)(=O)NC2CCCC2)c1C` gave an RP-LC retention time of 1060 s. `CCn1cc(S(=O)(=O)N2C[C@H]3CN(S(=O)(=O)c4cccc(F)c4)C[C@@H](C2)O3)cn1` gave an RP-LC retention time of 815 s. For `CCCCCn1c(=O)c2ccccc2n(Cc2nc(-c3ccc(Cl)c(F)c3)no2)c1=O`, the RP-LC retention time was 659 s. `CCOc1ccc(NC(=O)NCC2CCOCC2)cc1` showed an RP-LC retention time of 685 s. For `CCN(CCNC(=O)c1cccc2c1SCCC2=O)Cc1ccccc1`, the RP-LC retention time was 627 s. `Cn1c(=O)c(C(=O)NC2CCN(Cc3ccccc3)CC2)nc2cccnc21` showed an RP-LC retention time of 574 s. In the case of `O=C(O)C1CCN(c2nc3ccc(-c4ccncc4)nc3s2)CC1`, the RP-LC retention time is reported as 588 s. Molecule `COc1ccc(C(=O)N2C[C@@H]3C[C@H]2C[C@@H]3NC(=O)c2ccccc2)cc1OC` has an RP-LC retention time of 678 s. `Cc1cc2c(cc1S(=O)(=O)N1CCCC1C(=O)N1CCN(C3CCCCC3)CC1)OCC(=O)N2` (centres undefined) gave an RP-LC retention time of 584 s. `CCCn1c(-c2cccc(C(=O)NCc3cccc(Br)c3)c2)nc2cccnc21` gave an RP-LC retention time of 894 s. Work on `O=C(NCC1CCCO1)c1ccc(-c2ccc(N3CCCCC3)nc2)cc1` (centres undefined) yielded an RP-LC retention time of 613 s. `Cc1nn(CC(=O)NC(C)C)c(=O)c2nc(-c3ccccc3)sc12` showed an RP-LC retention time of 733 s. With `CCOCCCNC(=O)C1CCN(C2=NS(=O)(=O)C(c3ccc(C(C)C)cc3)=C2C)CC1` the RP-LC retention time was 858 s. In the case of `CCCN1CCn2cc(C(=O)NCc3ccc(C(C)C)cc3)nc2C1`, the RP-LC retention time is reported as 665 s. `CCOc1ccccc1N1CCN(c2cc(C(=O)O)c3cc(NC(=O)C(C)C)ccc3n2)CC1` gave an RP-LC retention time of 684 s. With `Cc1ccc(-c2nc3cnccn3c2NCCC(=O)NC(C)c2cccnc2)cc1` (centres undefined) the RP-LC retention time was 569 s. Work on `Cc1noc(C)c1Cc1c(C(=O)NCCn2c(C)cnc2C)noc1C` yielded an RP-LC retention time of 601 s. Molecule `COc1ccc(C)cc1NC(=O)Cn1cnc2c(sc3nc(-c4ccccc4)ccc32)c1=O` has an RP-LC retention time of 1090 s. For `Cc1noc(C2CN(C(=O)Nc3ccccc3)CC23CCOCC3)n1` (centres undefined), the RP-LC retention time was 650 s. For `O=C1CCCc2cc(S(=O)(=O)N3CCC(C(=O)Nc4cccc(Cl)c4)CC3)ccc2N1`, the RP-LC retention time was 826 s. `CCC(Oc1ccc(=O)n(-c2ccc(F)cc2)n1)C(=O)NCc1ccco1` (centres undefined) showed an RP-LC retention time of 733 s. Work on `COC(=O)c1cc(S(=O)(=O)N2CCCC2C(=O)Nc2ccccc2)cn1C` (centres undefined) yielded an RP-LC retention time of 818 s. `Cc1c(Cl)cccc1NC(=O)C1CCN(c2nc(C3CCC3)nc3csc(C)c23)CC1` gave an RP-LC retention time of 1000 s. `O=c1n(Cc2ccccc2Cl)nc2n1CCCCC2` showed an RP-LC retention time of 768 s. For `NC(=O)C(=O)c1cn(CC(=O)NC2CCCCC2)c2ccccc12`, the RP-LC retention time was 743 s. With `O=C1CSC(c2ccccc2Cl)c2cc(Cl)ccc2N1` (centres undefined) the RP-LC retention time was 987 s. Work on `COc1ccc(NC(=O)N2C[C@H]3C[C@H](C2)[C@H]2CCCC(=O)N2C3)cc1` yielded an RP-LC retention time of 620 s. In the case of `COC(=O)c1ccccc1NC(=O)C12CCC(C1)C(C)(C)C2=O` (centres undefined), the RP-LC retention time is reported as 951 s.
